A short description of this data set: In vivo pharmacokinetics (plasma and brain). Set-up: species or system mouse. The note with it: i.p. 10 mg/kg, female CD-1 mice. The protocol:
FIGS. 12A-D. NSN21778 in vitro metabolism stability, in vivo plasma pharmacokinetics, and side effect on body weight (Related to FIGS. 7A-G). (FIG. 12A) The metabolic stability of NSN21778 was evaluated in vitro after incubation with commercial liver S9 fractions in the presence of phase I (NADPH regenerating system) cofactors. Compound levels were determined by LC-MS/MS. Additionally, the stability of NSN21778 in the presence of commercial CD-1 mouse plasma was measured. (FIG. 12B) NSN21778 was dosed i.p. at 10 mg/kg to female CD-1 mice. Levels of NSN21778 in plasma and brain were evaluated by LC-MS/MS. (FIG. 12C) WTGFP, PS1KIGFP and APPKIGFP mice body weight after i.p. administrated with control solution or 10 mg/kg NSN21778 for 10 weeks. Data presented as mean±SE (n=5 mice). […]
In vivo pharmacokinetics. […] The supernatant was then analyzed by LC-MS/MS. […] The limit of quantitation (LOQ) was defined as the lowest concentration at which back calculation yielded a concentration within 20% of the theoretical value and above the LOD signal. […] Because the animals were not perfused prior to tissue isolation, to determine the final brain concentration of NSN21778, the amount of compound in brain due to brain vasculature was first subtracted using the calculated plasma concentrations of NSN21778 and a value of 30 μl of blood/g of brain tissue (Kwon, 2001).

`CC(=O)Nc1ccc(CCNc2ncnc3ccc(N)cc23)cc1` [NSN21778, N-{4-[2-(6-Amino-quinazolin-4-ylamino)-ethyl]-phenyl}-acetamide]: the brain penetration result is “poor” and the levels in plasma result is “modest levels”.

The values above are taken from US20180147206A1, “ACTIVATION OF NEURONAL STORE-OPERATED CALCIUM ENTRY PATHWAY FOR THE TREATMENT OF ALZHEIMER'S DISEASE” (The Board of Regents of the University of Texas System, priority 2015, published 2018).
